# In US6294554A (priority 2000, dated 2001):
# Test system: acetylcholine (ACh)
# Experiment: In vivo microdialysis, acetylcholine (ACh) levels in striatum
# Parameters: species or system male Sprague-Dawley Rats
# Conditions: 10 mg/kg PO, rat striatum ACh
# Experimental: Microdialysis Methodology
# Surgery: For these studies, male Sprague-Dawley Rats (250-350 g) were anesthetized with sodium pentobarbital (54 mg/kg, ip) and placed on a Kopf sterotaxic apparatus. The skull was exposed and drilled through to the dura at a point 0.2 mm anterior and 3.0 mm lateral to the bregma. At these coordinates, a guide cannula was positioned at the outer edge of the dura through the drilled opening, lowered perpendicularly to a depth of 2.5 mm, and permanently secured with dental cement to bone screws. Following the surgery, rats were given ampicillin (40 mg/kg, ip) and individually housed in modified cages. A recovery period of approximately 3 to 7 days was allowed before the microdialysis procedure was undertaken.
# Microdialysis: All of the equipment and instrumentation used to conduct in vivo microdialysis was obtained from Bioanalytical Systems, Inc. (BAS). The microdialysis procedure involved the insertion through the guide cannula of a thin, needle-like perfusable probe (CMA/12, 3 mm×0.5 mm) to a depth of 3 mm in striatum beyond the end of the guide. The probe was connected beforehand with tubing to a microinjection pump (CMA/100). Rats were collared, tethered, and, following probe insertion, were placed in a large, clear, plexiglass bowl with litter material and access to food and water. The probe was perfused at 2, μl/min with Ringer's buffer (NaCl 147 mM; KCl 3.0 mM; CaCl2 1.2 mM; MgCl2 1.0 mM) containing 5.5 mM glucose, 0.2 mM L-ascorbate, and 1 μM neostigmine bromide at pH 7.4). To achieve stable baseline readings, microdialysis was allowed to proceed for 90 minutes prior to the collection of fractions. Fractions (20 μl) were obtained at 10 minute intervals over a 3 hour period using a refrigerated collector (CMA/1 70 or 200). Four to five baseline fractions were collected, following which the drug or combination of drugs to be tested was administered to the animal. Upon completion of the collection, each rat was autopsied to determine accuracy of probe placement.
# Acetylcholine (ACh) analysis: The concentration of ACh in collected samples of microdialysate was determined using HPLC/electrochemical detection. Samples were auto-injected (Waters 712 Refrigerated Sample Processor) onto a polymeric analytical HPLC column (BAS, MF-6150) and eluted with 50 mM Na2 HPO4, pH 8.5. To prevent bacterial growth, Kathon CG reagent (0.005%) (BAS) was included in the mobile phase. Eluent from the analytical column, containing separated ACh and choline, was then immediately passed through an immobilized enzyme reactor cartridge (BAS, MF-6151) coupled to the column outlet. […] Integration and quantification of peaks were accomplished using "Maxima" chromatography software (Waters Corporation). […]
row,SMILES,Microdialysis Maximum % of baseline
1,COc1ccc(S(=O)(=O)c2ccc(C3(C4CCN(C5CCN(C(=O)c6cccc(F)c6N)CC5)CC4)OCCO3)cc2)cc1 [Example 2F],186%
2,COc1ccc(S(=O)(=O)c2ccc(C3(C4CCN(C5CCN(C(=O)c6cccc(C)c6N)CC5)CC4)OCCO3)cc2)cc1 [Example 2],194%
3,Nc1cc(F)ccc1C(=O)N1CCC(N2CCC(C3(c4ccc(S(=O)(=O)c5cccc(Cl)c5)cc4)OCCO3)CC2)CC1 [Example 3E],188%
4,Nc1ccccc1C(=O)N1CCC(N2CCC(Cc3ccc(S(=O)(=O)c4cccc(Cl)c4)cc3)CC2)CC1 [Example 7A],150%
